Calls of active or inactive are those of the source. The calls are words filed in the database; no cut-off is given here.
Assays:
[1] = target: Delta-type opioid receptor (Mus musculus, UniProt P32300); assay: Displacement of [3H]DPDPE from delta opioid receptor in CD1 mouse whole brain minus cerebellum membranes by liquid scintillation counting; type: tissue-based, Membrane
[2] = target: Mu-type opioid receptor (Mus musculus, UniProt P42866); assay: Displacement of [3H]DAMGO from mu opioid receptor in CD1 mouse whole brain minus cerebellum membranes by liquid scintillation counting; type: tissue-based, Membrane
[3] = species: Mus musculus; assay: Selectivity ratio of Ki for delta opioid receptor in CD1 mouse whole brain minus cerebellum membranes to Ki for mu opioid receptor in CD1 mouse whole brain minus cerebellum membranes; type: tissue-based
[4] = tested on: Mus musculus; assay: Inhibition of morphine-induced analgesia in CD1 mouse model at 80 mg/kg, ip pretreated 30 mins before 5 mg/kg, sc morphine injection and measured 30 to 120 mins after morphine treatment by tail-flick assay relative to control; type: functional, organism-based
[5] = tested on: Mus musculus; assay: Analgesic activity in acute pain CD1 mouse model assessed as withdrawal latency from radiant heat source at 40 to 80 mg/kg, ip by tail-flick assay; type: functional, organism-based
[6] = tested on: Mus musculus; assay: Inhibition of morphine-induced analgesia in CD1 mouse model at 40 mg/kg, ip pretreated 30 mins before 5 mg/kg, sc morphine injection and measured 30 to 120 mins after morphine treatment by tail-flick assay relative to control; type: functional, organism-based

Structure (SMILES)	Ki [1] [µM]	Ki [2] [µM]	Ratio Ki [3]	inhibition [4]	Activity [5]	inhibition [6]
C=CC(C)(O)CC[C@@]1(C)[C@H](C)CC[C@]2(C)[C@@H]1C[C@@H](O)[C@H]1O[C@]12C (stereo partly drawn)	25	> 50				
C=CC(C)(O)CC[C@@]1(C)[C@H](C)CC[C@@]2(C)C(C)=CC(=O)C[C@H]12 (stereo partly drawn)	23.5	40.5				
COc1cc(-c2cc(=O)c3c(O)c(OC)c(OC)c(OC)c3o2)ccc1O	37.5	> 50				
COc1ccc(-c2cc(=O)c3c(O)c(OC)c(O)cc3o2)cc1OC [EUPATILIN]	12	28	0.43			
COc1ccc(-c2cc(=O)c3c(O)c(OC)c(OC)c(OC)c3o2)cc1 [GARDENIN B]	> 50	> 50				
COc1c(OC)c(O)c2c(=O)cc(-c3ccc(O)c(O)c3)oc2c1OC [SIDERITIFLAVONE]	12.5	18.5	0.68			
COc1ccc(-c2cc(=O)c3c(OC)c(OC)c(OC)c(OC)c3o2)cc1 [TANGERETIN]	7	16.3	0.43			
COc1c(OC)c(O)c2c(=O)cc(-c3ccc(O)cc3)oc2c1OC [XANTHOMICROL]	3.6	0.83	4.36	Active	inactive	inactive

Source: ChEMBL document CHEMBL3392994, “Methoxyflavones from Stachys glutinosa with binding affinity to opioid receptors: in silico, in vitro, and in vivo studies” (J Nat Prod, 2015)
